Test results reported in patent US7632679B2, “Systems and methods for screening for modulators of neural differentiation” (The Trustees of Columbia University in the City of New York, priority 2002, dated 2009).
“Also recorded” adds a separate entry of the source.

Legend:
[1] = tested on: ES-cell-derived embryoid bodies; experiment: HB9+ motor neuron generation in embryoid bodies; type: cell-based, mouse
Procedure: (§1) For some experiments, ES cells were grown on a monolayer of stromal PA6 cell line (Riken Cell Bank, Japan), in DFK5 medium alone, or supplemented with 2 μM RA, as described (Kawasaki et al., Induction of midbrain dopaminergic neurons from ES cells by stromal cell-derived inducing activity. Neuron, 28:31-40, 2000).
To begin to examine the capacity of mouse ES cells to generate motor neurons, the inventors grew mouse ES cells in aggregate culture for 2 days, a procedure that results in the formation of embryoid bodies (EBs) (Bain et al., Embryonic stem cells express neuronal properties in vitro. Dev. Biol., 168:342-57, 1995).

[2] = tested on: ES cells / embryoid bodies; experiment: Suppression and induction of a neural character in differentiating embryoid bodies; type: cell-based, mouse; conditions: for acquisition of neural precursor cell fate (Sox1): 4 days of differentiation, factor present for entire culture (Wnt3a conditioned medium 1×, BMP4 10 ng/ml, SU5402 5 μM); for neural precursor or post-mitotic neural cells: EBs differentiated 4 days with RA+Wnt3a or RA+BMP4
Procedure: (§2) Medium was replaced every 2 days. Medium was supplemented by factors, at the start of ES-cell aggregation/differentiation (day 0) or on day 2, as indicated below, and cultured for a further 2-8 days.
(§3) Soluble Wnt3a and control-conditioned medium (Wilson et al., The status of Wnt signaling regulates neural and epidermal fates in the chick embryo. Nature, 411:325-30, 2001) were prepared, as previously described (Shibamoto et al., Cytoskeletal reorganization by soluble Wnt-3a protein signalling. Genes Cells, 3:659-70, 1998). Soluble Frizzled 8 (mFrz8CRD-IgG) and control-conditioned medium were prepared by transfecting HEK-293 cells with mfz8CRD-IgG (Hsieh et al., Biochemical characterization of Wnt-frizzled interactions using a soluble, biologically active vertebrate Wnt protein. Proc. Natl. Acad. Sci. USA, 96:3546-51, 1999) or LacZ reporter construct (Wilson et al., An early requirement for FGF signalling in the acquisition of neural cell fate in the chick embryo. Curr. Biol., 10:421-29, 2000). The transfected HEK-293 cells were then incubated for 48 h in OPTI-MEM medium. mFrzCRD-1gG conditioned medium was used undiluted.
Immunohistochemical localization of proteins was performed, as previously described (Yamada et al., Control of cell pattern in the developing nervous system: polarizing activity of the floor plate and notochord. Cell, 64:635-47, 1991). Neural precursor (neural progenitor) cells were delineated by expression of rabbit anti-Sox1. Post-mitotic neurons were delineated using mouse anti-Pax6. Otx1/Otx2 and Eng1, which are co-expressed at the midbrain/hindbrain boundary, were used to define cells of a midbrain-like character (Davis and Joyner, Expression patterns of the homeo box-containing genes En-1 and En-2 and the proto-oncogene int-1 diverge during mouse development. Genes Dev., 2:1736-44, 1988). Hox C6 and HoxC8 were used to delineate cells of a spinal-cord character. Krox20 (Covance) is expressed in hindbrain cells, in regions fated to give rise to rhombomeres 3 and 5; thus, co-expression of Sox1 and Otx1/Otx2, in the absence of Eng1 or Krox 20, was used to delineate an anterior/prosencephalic character (Lemaire and Kessel, Gastrulation and homeobox genes in chick embryos. Mech. Dev., 67:3-16, 1997).
In control experiments, 15-30% of cells attained a neural-cell fate when subjected to aggregation in differentiation medium. To suppress a neural-cell fate, medium was supplemented by Wnt3a conditioned medium (1×), BMP4 (10 ng/ml), or SU5402 (5 μM), at the start of ES-cell aggregation (day 0). To induce a neural-cell fate, medium was supplemented by mFRZ8CRD conditioned medium (2×) at the start of ES-cell aggregation (day 0). ES cells were differentiated for 4-8 days.

[3] = tested on: ES-cell-derived neural precursor cells; experiment: Caudalization of a neural character by Wnt3a; type: cell-based, mouse; conditions: Wnt3a at different concentrations and/or times; 2 days differentiation medium, then 2 days with Wnt3a
Procedure: as §2, §3
Immunohistochemical localization of proteins was performed, as previously described (Yamada et al., Control of cell pattern in the developing nervous system: polarizing activity of the floor plate and notochord. Cell, 64:635-47, 1991). […]

[4] = tested on: neural progenitor cells in embryoid bodies; experiment: Progenitor transcription factor expression (ventralization) in RA-exposed embryoid bodies; type: cell-based, mouse
HBG3 ES cells = experiment: eGFP+ motor neuron generation in HBG3 ES-cell-derived embryoid bodies; type: cell-based, mouse
Procedure: as §1
A transgenic mouse line was established by pronucleus injection of a construct that used a ˜9 kB fragment comprising the 5′ upstream region of the murine HB9 gene (Arber et al., Requirement for the homeobox gene Hb9 in the consolidation of motor neuron identity. Neuron, 23:659-764, 1999), followed by a 5′ splice substrate (Choi et al., A generic intron increases gene expression in transgenic mice. Mol. Cell Biol., 11:3070-74, 1991), an eGFP gene, and a bovine growth hormone polyadenylation signal. The ˜9 kB Not1 fragment of HB9 is sufficient to direct eGFP expression to develop motor neurons in transgenic embryos examined from E9.5 to P10. In one transgenic line (mHB9-Gfp1b), the pattern of eGFP expression corresponded closely to the profile of expression of endogenous HB9. ES-cell lines were derived from mHB9-Gfp1b heterozygous blastocysts, as previously described (Abbondanzo et al., Derivation of embryonic stem cell lines. Methods Enzymol., 225:803-23, 1993). One selected line (HBG3) was tested for its capacity to integrate into developing mouse blastocysts and its capacity for germline transmission.
HBG3 ES-cell embryoid bodies were dissociated using a papain dissociation system (Worthington Biochemical Corp.). Cells expressing high levels of eGFP were sorted from the cell suspension with a Beckman-Coulter Altra flow cytometer, based on their eGFP fluorescence and forward light scatter using the gate indicated in the plot. Typically, 20-30% of input cells expressed high levels of GFP. The analysis established that this eGFP-Hi cell group constituted a >95% pure population of motor neurons. The yield of a typical FACS sort is 3000-5000 GFP-Hi cells per EB.

mouse ES cells = experiment: Directed differentiation of ES cells into LH2-positive dorsal spinal neurons; type: cell-based; conditions: embryoid bodies grown in the presence of BMP7
Procedure: Embryonic stem (ES) cells were grown on mouse embryonic fibroblasts in ES-cell medium, as described in Example 1. ES-cell colonies were partially dissociated with 0.05% trypsin/EDTA, after 2 days, and cultured in DFNB medium (neurobasal medium (Gibco) mixed with DMEM (Specialty Media, EmbryoMax) and F12 (Gibco), in a 2:1:1 ratio, supplemented with 1×B27 supplement, 0.1 mM 2-mercaptoethanol (Sigma), 2 mM L-glutamine (Gibco), and 1× penicillin/streptomycin (Gibco)) (˜10^5 cells/ml).
After 2 days in culture, embryoid bodies (EBs) were plated in DFNB medium supplemented with retinoic acid (100 nM to 1 μM) (Sigma). After 1-2 days in culture, in the presence of retinoic acid, EBs were collected, rinsed 2-3 times with PBS, and plated in DFNB medium supplemented with human BMP4 (10 ng/ml; R&D systems) or BMP7 (20 ng/ml). After an additional 4 days in culture, cells were fixed using 4% paraformaldehyde, and processed for immunocytochemistry.

[5] = RA-treated EBs, 10 nM Hh-Ag1.3, 3 days

## CC1=C(/C=C/C(C)=C/C=C/C(C)=C/C(=O)O)C(C)(C)CCC1 [RA, retinoic acid]
[1]; RA-exposed EBs grown alone for 5 days
  HB9+ neurons per section: 7±2 HB9^+ neurons/section

## Wnt3a
[2]
  acquisition of neural precursor cell fate (Sox1): could not acquire a neural precursor cell fate
  neural precursor or post-mitotic neural cells: no neural precursor or post-mitotic neural cells were present
[3]
  caudalization of neural cells: progressively caudalized to hindbrain and spinal cord character

## CNC1CCC(N(Cc2cccc(-c3ccncc3)c2)C(=O)c2sc3ccccc3c2Cl)CC1 (centres unmarked) [Hh-Ag1.3]
[4]; Hh-Ag1.3-exposed EBs, 3 days with RA
  BrdU incorporation by Olig2+ cells: incorporated BrdU
[4]; [5]
  Nkx6.1+ and Olig2+ cells: a few Nkx6.1^+ and Olig2^+ cells were detected
  Pax7 expression: completely repressed
  number of Dbx1+ cells: reduced
  number of Pax6+ and Irx3+ cells: increased
[4]; RA-treated EBs, 1 μM Hh-Ag1.3
  Dbx1 expression: virtually eliminated
  HNF3β+ floor plate cells: no HNF3β^+ floor plate cells were detected
  Nkx2.2+ cells: a few Nkx2.2^+ cells were also induced
  number of Irx3+ and Pax6+ cells: markedly reduced
  number of Nkx6+ and Olig2+ cells: large increase
HBG3 ES cells; 10 μM Hh-Ag1.3
  toxicity for cells differentiating in EBs: became toxic for cells differentiating in EBs
HBG3 ES cells; Hh-Ag1.3 (1 μM) in the absence of RA
  generation of eGFP+/HB9+ motor neurons: failed to generate eGFP^+/HB9^+ motor neurons
HBG3 ES cells; RA and 1 μM Hh-Ag1.3
  eGFP+/HB9+ motor neurons as share of total cells in EBs: 20-30%
HBG3 ES cells; RA plus 2.2 μM Hh-Ag1.3, 5 days
  cells in EBs expressing eGFP: 22.5%
HBG3 ES cells; RA-exposed HBG3 EBs plus Hh-Ag1.3, concentration-dependent (0 to 2.2 μM)
  number of eGFP+/HB9+ motor neurons: increased
[1]; Hh-Ag1.3 (1 μM) for 5 days without RA
  HB9+ neurons in EBs: No HB9^+ neurons were generated; also recorded: did not contain HB9^+ neurons
[1]; RA-treated EBs plus SHh (300 nM) or Hh-Ag1.3 (1 μM)
  HB9+ neurons per section: 509±57 HB9^+ neurons/section
[1]; RA-treated EBs plus SHh (300 nM) or Hh-Ag1.3 (1 μM), ~10-15 sections per EB
  HB9+ neurons per EB: 5000 HB9^+ neurons

## Cc1c[nH]c(/C=C2\C(=O)Nc3ccccc32)c1CCC(=O)O [SU5402]
[2]
  acquisition of neural precursor cell fate (Sox1): could not acquire a neural precursor cell fate

B1: BMP7: bone morphogenetic protein 7 (protein, UniProt P18075 293-431, looked up)
Bone morphogenetic protein 7: STGSKQRSQNRSKTPKNQEALRMANVAENSSSDQRQACKKHELYVSFRDLGWQDWIIAPEGYAAYYCEGECAFPLNSYMNATNHAIVQTLVHFINPETVPKPCCAPTQLNAISVLYFDDSSNVILKKYRNMVVRACGCH
Mouse ES cells
  dorsal spinal neurons (LH2) and their progenitors (Math1): numerous dorsal neurons and their progenitors were observed

B2: BMP4: human BMP4 protein (bone morphogenetic protein), R&D systems (protein, UniProt P12644 293-408, looked up)
Bone morphogenetic protein 4: SPKHHSQRARKKNKNCRRHSLYVDFSDVGWNDWIVAPPGYQAFYCHGDCPFPLADHLNSTNHAIVQTLVNSVNSSIPKACCVPTELSAISMLYLDEYDKVVLKNYQEMVVEGCGCR
[2]
  acquisition of neural precursor cell fate (Sox1): could not acquire a neural precursor cell fate
  neural precursor or post-mitotic neural cells: no neural precursor or post-mitotic neural cells were present
